We go through 28 molecules from ChEMBL document CHEMBL4483862, “Open-source discovery of chemical leads for next-generation chemoprotective antimalarials” (2018).

This experiment concerns Plasmodium berghei. The experiment is described as follows: Luciferase/luciferin-expressing antifolate-resistant parasites were used to infect a culture of HepG2 cells that were pre-incubated with compounds. Infected hepatocytes emit light due to the luciferase reaction. Assay results are presented as the percent inhibition of light emission compared to control. […]. Particulars: sporozoite; for IC90: read-out: LUCIFERASE INFECTION ASSAY - IC90. It counts as functional.

Each structure is given as a SMILES string.

Regarding `Cc1ccc(C(=O)C(=O)Nc2cc(S(=O)(=O)N3CCCCC3)ccc2OC(C)C)cc1`, the IC90 was > 10 µM. In addition, the IC50 (FFLUC_HILL_SLOPE 11.8, FFLUC_R_SQUARED 0.613, read-out: LUCIFERASE INFECTION ASSAY - IC50) is > 10 µM.

With `Cc1nsc(N)c1C(=O)OCc1cc(=O)n2c3c(sc2n1)CCCC3`, the concentration for an effect of 90% (IC90) was > 10 µM. Moreover, where the note is “FFLUC_HILL_SLOPE 11.9, FFLUC_R_SQUARED 0.297, read-out: LUCIFERASE INFECTION ASSAY - IC50”, the 50% inhibitory concentration (IC50) is > 10 µM.

In the case of `COc1cc2c(cc1OC)C(c1cccs1)N(CC(=O)Nc1cc([N+](=O)[O-])ccc1C)CC2` (stereo unspecified), the IC90 is 2.62 µM. For the same molecule, the concentration for half-maximal inhibition (IC50) (FFLUC_HILL_SLOPE 11.9, FFLUC_R_SQUARED 0.176, HEPG2TOX_HILL_SLOPE 0.633, HEPG2TOX_R_SQUARED 0.848, PBLUC_HILL_SLOPE 2.15, PBLUC_R_SQUARED 0.479, read-out: LUCIFERASE INFECTION ASSAY - IC50) is 0.944 µM.

As to `Cn1c(=O)/c(=C\c2cn(-c3ccccc3)nc2-c2ccccc2)s/c1=C\C(=O)C(C)(C)C`, the IC90 was > 10 µM. In addition, the IC50 (FFLUC_HILL_SLOPE 11.8, FFLUC_R_SQUARED 0.797, read-out: LUCIFERASE INFECTION ASSAY - IC50) was > 10 µM.

For `N#CC(C(=O)CSc1nnc(-c2ccc(F)cc2)c2ccccc12)=C1Nc2ccccc2N1`, the IC90 was > 10 µM. For the same molecule, the half-inhibitory concentration (IC50) (FFLUC_HILL_SLOPE 12, FFLUC_R_SQUARED 0.136, read-out: LUCIFERASE INFECTION ASSAY - IC50) was > 10 µM.

For the molecule `COc1cc(OC)c(C2CCN(C(=O)c3nn(-c4ccc(F)cc4)c4c3CCCC4)CC2)c(OC)c1`, the IC90 is > 10 µM. Where the note is “FFLUC_HILL_SLOPE 11.8, FFLUC_R_SQUARED 0.584, PBLUC_HILL_SLOPE 10.3, PBLUC_R_SQUARED 0.0293, read-out: LUCIFERASE INFECTION ASSAY - IC50”, the IC50 is > 10 µM.

Regarding `Cn1nc(C(F)(F)F)cc1-c1ccc(/C=C(\C#N)S(=O)(=O)c2ccc(Cl)cc2)s1`, the IC90 was > 7.21 µM. Besides, where the note is “FFLUC_HILL_SLOPE 11.9, FFLUC_R_SQUARED 0.391, read-out: LUCIFERASE INFECTION ASSAY - IC50”, the half-maximal inhibitory concentration (IC50) was > 7.21 µM.

`Cc1c(S(=O)(=O)c2ccc(Cl)cc2)csc1C(=O)Nc1cc(C(F)(F)F)cc(C(F)(F)F)c1`: the concentration for an effect of 90% (IC90) is > 6.25 µM. Under “FFLUC_HILL_SLOPE 11.9, FFLUC_R_SQUARED 0.653, HEPG2TOX_HILL_SLOPE 12.6, HEPG2TOX_R_SQUARED 0.751, PBLUC_HILL_SLOPE 2.69, PBLUC_R_SQUARED 0.583, read-out: LUCIFERASE INFECTION ASSAY - IC50”, the IC50 was determined as 3.24 µM.

For `O=C(Nc1ccc(Cl)cc1)Nc1cc(Cl)c(-n2cccc2)cc1Cl`, the IC90 is > 8.67 µM. Besides, the half-maximal inhibitory concentration (IC50) (FFLUC_HILL_SLOPE 11.8, FFLUC_R_SQUARED 0.707, PBLUC_HILL_SLOPE 1.68, PBLUC_R_SQUARED 0.178, read-out: LUCIFERASE INFECTION ASSAY - IC50) is 6.82 µM.

Consider `NNc1nn2c(=O)c3c(-c4ccccc4)csc3nc2c2ccccc12`, for which the IC90 is > 10 µM. Moreover, for the setting “FFLUC_HILL_SLOPE 12, FFLUC_R_SQUARED 0.305, PBLUC_HILL_SLOPE 10.1, PBLUC_R_SQUARED 0.389, read-out: LUCIFERASE INFECTION ASSAY - IC50”, the IC50 was determined as 8.61 µM.

`CC(C)c1ccc(NC(=O)C2=CN3CCN(Cc4ccccc4)C(=O)N=C3O2)cc1`: the concentration for an effect of 90% (IC90) was > 10 µM. Also, the half-maximal inhibitory concentration (IC50) (FFLUC_HILL_SLOPE 11.9, FFLUC_R_SQUARED 0.0164, read-out: LUCIFERASE INFECTION ASSAY - IC50) was > 10 µM.

`Cc1cccc(NC(=S)Nc2cn(-c3ccccc3)nc2-c2ccc(Br)cc2)c1C`: the IC90 was > 10 µM. In addition, the IC50 (FFLUC_HILL_SLOPE 12, FFLUC_R_SQUARED 0.538, PBLUC_HILL_SLOPE 15.7, PBLUC_R_SQUARED 0.516, read-out: LUCIFERASE INFECTION ASSAY - IC50) came to 9.52 µM.

Take `CC(C)(C)c1ccc(-c2nnc(SCc3ccc([N+](=O)[O-])cc3)n2-c2cccc(C(F)(F)F)c2)cc1`: the IC90 was > 6.44 µM. The IC50 (FFLUC_HILL_SLOPE 12, FFLUC_R_SQUARED 0.571, HEPG2TOX_HILL_SLOPE 0.228, HEPG2TOX_R_SQUARED 0.238, read-out: LUCIFERASE INFECTION ASSAY - IC50) was > 6.44 µM.

`COc1ccc(CCn2nc(C(=O)NC3CC3)c3c2CCN(C(=O)c2cc4cc(C)ccc4[nH]2)C3)cc1`: the 90% effect concentration (IC90) was > 6.63 µM. The IC50 (FFLUC_HILL_SLOPE 11.9, FFLUC_R_SQUARED 0.277, PBLUC_HILL_SLOPE 2.4, PBLUC_R_SQUARED 0.763, read-out: LUCIFERASE INFECTION ASSAY - IC50) was determined as 2.8 µM.

In the case of `Cc1nn(-c2ccccc2)c2nc(Cl)c(C3Nc4ccccc4-c4nc5ccccc5n43)cc12` (stereo unspecified), the IC90 was > 10 µM. Also, the IC50 (FFLUC_HILL_SLOPE 11.9, FFLUC_R_SQUARED 0.792, read-out: LUCIFERASE INFECTION ASSAY - IC50) was > 10 µM.

As to `N#Cc1nc(=O)n(-c2ccc(OC(F)(F)F)cc2)c(N)c1/N=C/c1ccc(C(F)(F)F)cc1`, the concentration for an effect of 90% (IC90) was determined as 4.82 µM. Further, the IC50 (FFLUC_HILL_SLOPE 11.8, FFLUC_R_SQUARED 0.146, HEPG2TOX_HILL_SLOPE 2.94, HEPG2TOX_R_SQUARED 0.795, PBLUC_HILL_SLOPE 2.18, PBLUC_R_SQUARED 0.738, read-out: LUCIFERASE INFECTION ASSAY - IC50) is 1.76 µM.

Turning to `CCOc1ccc(-c2n[nH]c3c2C(c2ccccc2)N(c2ccccc2)C3=O)cc1` (stereo unspecified), the IC90 was > 8.34 µM. In addition, the IC50 (FFLUC_HILL_SLOPE 11.9, FFLUC_R_SQUARED 0.867, HEPG2TOX_HILL_SLOPE 2.22, HEPG2TOX_R_SQUARED 0.878, read-out: LUCIFERASE INFECTION ASSAY - IC50) is > 8.34 µM.

For the molecule `CCOC(=O)c1c(-c2cccs2)csc1NC(=O)c1c(S)n(-c2ccccc2C)c2ccc(C)c[n+]12`, the IC90 was > 10 µM. Moreover, the IC50 (FFLUC_HILL_SLOPE 11.9, FFLUC_R_SQUARED 0.481, read-out: LUCIFERASE INFECTION ASSAY - IC50) was > 10 µM.

Consider `COc1cc2ccccc2cc1C(=O)OC(C(=O)Nc1ccc(C)c(Cl)c1)c1ccccc1` (stereo unspecified), for which the concentration for an effect of 90% (IC90) is > 10 µM. Besides, the IC50 (FFLUC_HILL_SLOPE 12, FFLUC_R_SQUARED 0.255, PBLUC_HILL_SLOPE 12.6, PBLUC_R_SQUARED 0.137, read-out: LUCIFERASE INFECTION ASSAY - IC50) was > 10 µM.

For `CC(C1CC2CCC1C2)n1c(SCc2nnc(-c3ccccc3)o2)nnc1-c1ccco1` (stereo unspecified), the IC90 is > 10 µM. The concentration for half-maximal inhibition (IC50) (FFLUC_HILL_SLOPE 12, FFLUC_R_SQUARED 0.233, read-out: LUCIFERASE INFECTION ASSAY - IC50) was > 10 µM.

For the molecule `O=C1C(=O)N(Cc2ccccc2Cl)c2c1cccc2C(F)(F)F`, the IC90 turned out to be 3.7 µM. In addition, the IC50 (FFLUC_HILL_SLOPE 12, FFLUC_R_SQUARED 0.566, HEPG2TOX_HILL_SLOPE 13.8, HEPG2TOX_R_SQUARED 0.966, PBLUC_HILL_SLOPE 12.2, PBLUC_R_SQUARED 0.654, read-out: LUCIFERASE INFECTION ASSAY - IC50) was 3.09 µM.

For `COc1ccc(OCCN2CCN(CC(=O)Nc3nc(-c4c[nH]c5ccccc45)cs3)CC2)cc1`, the concentration for an effect of 90% (IC90) was found to be 9.98 µM. Moreover, the IC50 (FFLUC_HILL_SLOPE 11.8, FFLUC_R_SQUARED 0.598, PBLUC_HILL_SLOPE 24.3, PBLUC_R_SQUARED 0.264, read-out: LUCIFERASE INFECTION ASSAY - IC50) stood at 9.11 µM.

For `CC(OC(=O)[C@@H](Nc1ccc(C(F)(F)F)cc1Cl)C(C)C)C(=O)NC(=O)NC1CCCCC1` (stereo partly specified), the IC90 turned out to be 6.57 µM. Besides, the concentration for half-maximal inhibition (IC50) (FFLUC_HILL_SLOPE 12, FFLUC_R_SQUARED 0.576, PBLUC_HILL_SLOPE 4.18, PBLUC_R_SQUARED 0.859, read-out: LUCIFERASE INFECTION ASSAY - IC50) was 3.88 µM.

As for `O=C(Nc1ncccc1OCc1ccc(Cl)c(Cl)c1)c1cc(Cl)cc(Cl)c1`, the IC90 is > 7.46 µM. Further, the IC50 (FFLUC_HILL_SLOPE 11.8, FFLUC_R_SQUARED 0.202, PBLUC_HILL_SLOPE 16.7, PBLUC_R_SQUARED 0.189, read-out: LUCIFERASE INFECTION ASSAY - IC50) is > 7.46 µM.

As for `Cc1ccc(CCC2CCN(C(=O)c3ccc(NS(=O)(=O)c4cccs4)cc3O)CC2)cc1`, the IC90 was > 10 µM. Moreover, under “FFLUC_HILL_SLOPE 12, FFLUC_R_SQUARED 0.0293, HEPG2TOX_HILL_SLOPE 12.4, HEPG2TOX_R_SQUARED 0.101, read-out: LUCIFERASE INFECTION ASSAY - IC50”, the IC50 is > 10 µM.

With `COc1ccc(OC)c(/C=C/C(=O)Nc2cc(C(F)(F)F)ccc2Oc2ccc(Br)cc2)c1`, the IC90 was > 10 µM. Also, where the note is “FFLUC_HILL_SLOPE 11.8, FFLUC_R_SQUARED 0.49, HEPG2TOX_HILL_SLOPE 2.88, HEPG2TOX_R_SQUARED 0.666, read-out: LUCIFERASE INFECTION ASSAY - IC50”, the IC50 was > 10 µM.

Turning to `CC(C)c1ccccc1N(C(=O)Cc1ccc(-c2ccccc2)cc1)c1nc2ccccc2s1`, the IC90 is > 10 µM. Moreover, the half-maximal inhibitory concentration (IC50) (FFLUC_HILL_SLOPE 11.9, FFLUC_R_SQUARED 0.677, HEPG2TOX_HILL_SLOPE 16.8, HEPG2TOX_R_SQUARED 0.508, PBLUC_HILL_SLOPE 1.31, PBLUC_R_SQUARED 0.0526, read-out: LUCIFERASE INFECTION ASSAY - IC50) stood at 6.43 µM.

Regarding `O=C(OCc1ccccc1)C1=C2Sc3ccccc3N2C(=O)NC1(c1ccccc1)C(F)(F)F` (stereo unspecified), the IC90 was > 10 µM. For the setting “FFLUC_HILL_SLOPE 11.9, FFLUC_R_SQUARED 0.439, PBLUC_HILL_SLOPE 2.55, PBLUC_R_SQUARED 0.528, read-out: LUCIFERASE INFECTION ASSAY - IC50”, the half-inhibitory concentration (IC50) was determined as 6.8 µM.

Broadly, the IC50 is the point on the concentration scale where inhibition reaches its midpoint. In general, IC90 refers to the concentration at which the effect reaches the 90% level.
